Measured values reported in US20190201508A1, “METHODS FOR TREATING CANCERS USING ACE INHIBITORS, ARB, OR CELECOXIB AND OLMESARTAN” (Marina Biotech, Inc., priority 2016, published 2019).

Legend:
[1] = system: SUM149-RR tumor cells; test: Orthotopic human inflammatory breast cancer model SUM149-RR, lymph node metastatic burden (luciferase); assay type: in vivo, CB-17 SCID mice; conditions: for change in ILN burden versus control (in words): single agents or combination with CEL
Experimental: (§1) Luciferase-tagged SUM149 and MDA-MB-435 cell lines were used to determine the incidence and the burden of locoregional and systemic spread. Mice were monitored twice a week for 9-16 weeks for percent weight loss, tumor volume and survival outcome. Metastatic tumor burden and incidence was measured as luciferase expression in lymph nodes and lungs and normalized to total protein.
(§2) Tumors were monitored 2-3 times per week with digital calipers. Once tumors reached 1500 mm3, the mice were sacrificed. Tumors from MDA-MB-435-Luc and SUM149-RR were snap frozen and ipsilateral lymph nodes and lungs were collected for assessing metastatic burden and incidence by measuring luciferase expression per organ and normalized to total protein. Difference in incidence or burden as compared to the control was assessed by a Fisher exact test, or a Mann-Whitney test.
as §1, with “Methods: Three anti-hypertensive drugs (Lisinopril [LIS], Olmesartan medoxomil [OLM] and Hydrochlorothiazide [HCTZ]) were evaluated for tumor growth suppression and metastatic spread in xenograft models of inflammatory breast cancer/SUM149, melanoma/MDA-MB-435 and glioblastoma/U87. Luciferase-tagged” for “Luciferase-tagged”, “spread. […]” for “spread.”
Seven days post implantation, mice in subgroups of 5 received either saline, LIS (15 mg/kg), OLM (30 mg/kg) or HCTZ (10 mg/kg) for 5 days/wk for 3 weeks.
(§3) Tumors were monitored 2-3 times per week with digital calipers. Once tumors reached 1500 mm3, the mice were sacrificed. The tumor was snap frozen and ipsilateral lymph nodes and lungs were collected for assessing metastatic burden and incidence by measuring luciferase expression per organ and normalized to total protein. Difference in incidence or burden as compared to the control was assessed by a Fisher exact test, or a Mann-Whitney test.

[2] = system: inflammatory breast cancer/SUM149, melanoma/MDA-MB-435 and glioblastoma/U87 xenografts; test: Tumor growth suppression across xenograft models (pooled statements); assay type: in vivo, mice; conditions: for effect on tumor growth (in words): single agents, cancer models studied (breast cancer, melanoma, glioblastoma)
Experimental: as §1
Subcutaneous melanoma xenograft tumor model: MDA-MB-435-Luc: Female SCID mice were implanted with 4×10^6 MDA-MB-435-Luciferase tumor cells in 50% Matrigel subcutaneously on the left flank.
Orthotopic human inflammatory breast cancer model: SUM149-RR: Female CB-17 SCID mice were implanted in the mammary fat pad with 4×10^6 SUM149-RR tumor cells in 50% Matrigel.
T/C (%) was calculated as the mean RTV (relative tumor volume) of treated tumors (T) divided by the mean RTV of control tumors (C)×100%.
as §2
(§4) Methods: Three anti-hypertensive drugs (Lisinopril [LIS], Olmesartan medoxomil [OLM] and Hydrochlorothiazide [HCTZ]) were evaluated for tumor growth suppression and metastatic spread in xenograft models of inflammatory breast cancer/SUM149, melanoma/MDA-MB-435 and glioblastoma/U87. Luciferase-tagged SUM149 and MDA-MB-435 cell lines were used to determine the incidence and the burden of locoregional and systemic spread. CB-17 SCID mice were implanted either subcutaneously (MDA-MB-435 and U87) or orthotopically (SUM149) with 4×10^6 cancer cells and oral administration of test agents for 3 weeks was initiated on post-tumor inoculation Day 7. Mice were monitored twice a week for 9-16 weeks for percent weight loss, tumor volume and survival outcome. Metastatic tumor burden and incidence was measured as luciferase expression in lymph nodes and lungs and normalized to total protein.
Subcutaneous human melanoma xenograft tumor model: MDA-MB-435-Luciferase: Female SCID mice were implanted with 4×10^6 MDAMB-435-Luc tumor cells in 50% Matrigel subcutaneously on the left flank. Seven days post implantation, tumor-bearing mice in subgroups received either saline, Lisinopril (LIS, 15 mg/kg), Olmesartan (OLM, 30 mg/kg); or Hydrochlorothiazide (HCTZ, 10 mg/kg) for 5 consecutive days for 3 weeks.
Female CB-17 SCID mice were implanted in the mammary fat pad with 4×10^6 SUM149-RR tumor cells in 50% Matrigel. Seven days post implantation, mice in subgroups of 5 received either saline, LIS (15 mg/kg), OLM (30 mg/kg) or HCTZ (10 mg/kg) for 5 days/wk for 3 weeks.
Subcutaneous human U87-MG glioblastoma model: 3×10^6 U87 glioblastoma cells were injected into the right flank of Balb/c nude mice and tumor-bearing (50-250 mm3) mice were randomized into 10 groups (10 mice/group) and the antitumor activities of OLM were evaluated following daily PO administration (30 or 60 mg/kg, QD×21). T/C (%) was calculated as the mean RTV (relative tumor volume) of treated tumors (T) divided by the mean RTV of control tumors (C)×100%.
as §3

[3] = system: tumor blood vessels (BV); test: Tumor blood vessel density and normalization (FIG. 6A/6B); assay type: in vivo; conditions: control tumors had low BV density and necrosis
[4] = system: MDA-MB-435 xenograft; test: MDA-MB-435 xenograft tumor growth and tumor burden; assay type: in vivo, CB-17 SCID mice; conditions: MDA-MB-435 model; LIS 15 mg/kg, 5 consecutive days for 3 weeks
Experimental: as §2
as §4, with “CB-17 SCID mice were implanted either subcutaneously (MDA-MB-435 and U87) or orthotopically (SUM149) with 4×10^6 cancer cells and oral administration of test agents for 3 weeks was initiated on post-tumor inoculation Day 7.” left out
Tumors were monitored 2-3 times per week with digital calipers. Once tumors reached 1500 mm3, the mice were sacrificed.

SMILES	change in ILN burden versus control (in words) [1]	effect on tumor growth (in words) [2]	effect on tumor growth (in words) ([2]; listed as HTCZ)	effect on tumor blood vessels (BV) ([3]; FIG. 6A, single agents)	effect on tumor blood vessels (BV) ([3]; FIG. 6B, in combination)	reduction in tumor burden [4]	effect on tumor growth (in words) ([2]; listed as Lisinopril)	fold decrease in ILN tumor burden versus saline control ([1]; OLM 30 mg/kg alone) [fold]	average tumor burden in the ipsilateral lymph nodes (ILN) ([1]; OLM 30 mg/kg, saline control 17.6±8.6, p-value=0.01 by Mann-Whitney test)	lymph node burden ([1]; OLM versus control 17.6±8.6, P=0.01)	inhibition of tumor growth ([2]; range over all three xenograft models (SUM149, MDA-MB-435, U87))	effect on tumor growth (in words) ([2]; listed as olmesartan)
NS(=O)(=O)c1cc2c(cc1Cl)NCNS2(=O)=O [HCTZ, Hydrochlorothiazide]	not	no effect on tumor growth	did not show the same effect									
NCCCC[C@H](N[C@@H](CCc1ccccc1)C(=O)O)C(=O)N1CCC[C@H]1C(=O)O [LIS, Lisinopril]		significant inhibition of tumor growth		no major effect	no major effect	significant reduction in tumor burden	showed tumor growth suppression					
CCCc1nc(C(C)(C)O)c(C(=O)OCc2oc(=O)oc2C)n1Cc1ccc(-c2ccccc2-c2nn[nH]n2)cc1 [OLM, (5-methyl-2-oxo-2H-1,3-dioxol-4-yl)methyl 4-(2-hydroxypropan-2-yl)-2-propyl-1-({4-[2-(2H-1,2,3,4-tetrazol-5-yl)phenyl]phenyl}methyl)-1H-imidazole-5-carboxylate]	statistically significant decrease in ILN burden	significant inhibition of tumor growth		facilitated the normalization and stabilization of tumor BVs	facilitated the normalization and stabilization of tumor BVs			7.1	2.4±0.6 ×104 RLU per mg of protein	2.4±0.6 ×10^4 RLU/mg of protein	50-61%	showed tumor growth suppression
